{"source": "patent US5753681A", "about": "“Treatment and prophylaxis of pancreatitis” (Sankyo Company, Limited, priority 1996, dated 1998)", "key": {"[1]": {"test": "Histopathology of pancreatic tissue of Example 6: total cross-sectional area and cicatrized area", "assay_type": "in vivo, male WBN/Kob rats", "details": "9.5 months; for Cicatrized area in the exocrine pancreatic tissue: **p < 0.01", "protocol": "(§1) The measurement of the cicatrized area may also be carried out by conventional procedures. More specifically, male WBN/Kob rats are used as models of spontaneous chronic pancreatitis and are fed with a powdered feed admixed with a test compound. The pancreas of each animal is then totally enucleated. Its weight is measured and also the cicatrized area is measured relative to the total cross-sectional area of the pancreas tissue sliced by an image analyser.\n(§2) In order to evaluate the results of Example 2 histopathologically, each pancreas used for weight measurement in Example 2 was fixed in 10% neutral formalin. It was then divided into a spleen side half and a duodenum side half, and each half was sliced at 3 mm intervals to provide cross-sectional tissue pieces. All of these tissue pieces were subjected to paraffin sectioning by conventional procedures and then to hematoxylin-eosin staining and Masson's trichrome staining to prepare two tissue preparations, which were used for histopathological examination. The total cross-sectional area of the pancreatic tissue piece on each preparation was measured using an image analyser (SPICCAII, manufactured by Olympus Optical Co., Ltd.).\n(§3) In addition, the surface area of the zone which had undergone degeneration and necrosis and in which the exocrine pancreatic tissue was replaced with connective tissue (the cicatrized area) was measured using an image analyser.\nThe test animals were male WBN/Kob rats. Each group of test animals contained 6 animals, and the animals were used for the experiment when they had reached 12 weeks old. The animals were fed with powdered feed F2 mixed with 0.2% or 0.05% of troglitazone for 9.5 months. These groups are hereinafter referred to as \"the 0.2% group\" and \"the 0.05% group\", respectively. The average doses of the compound during this period were 120 mg/kg/day and 30 mg/kg/day, respectively. Meanwhile, another six rats (control group) were fed with the powdered feed F2 only. After the rats had been fed with the feeds for 9.5 months, each rat was decapitated and its blood was collected. The blood serum was separated and the plasma lipase level was measured using an autoanalyser (type 7250, manufactured by Hitachi Ltd.).\nIn order to evaluate the results of Example 6 histopathologically, the total cross-sectional area and cicatrized area of each pancreas whose weight was measured in Example 6 was measured by the procedure described in Example 4."}, "[2]": {"test": "Histopathology of pancreatic tissue of Example 2: total cross-sectional area and cicatrized area", "assay_type": "in vivo, male WBN/Kob rats", "details": "0.2% in feed, three months", "source_text": "Since the decrease in the amount of pancreatic parenchyma resulting from chronic pancreatitis causes loss of pancreatic weight, any suppression of the decrease in the amount of pancreatic parenchyma can be used as an index for evaluating any improvement in the pancreatitis. Furthermore, since degeneration and necrosis of the pancreatic parenchyma and its replacement by connective tissue occurs in chronic pancreatitis, the seriousness of the pancreatitis can be estimated by histopathologically measuring the area over which the pancreatic parenchyma is replaced with connective tissue (known as the \"cicatrized area\").\nas §1\nThe test animals were male WBN/Kob rats, which are commonly used as models of spontaneous chronic pancreatitis and suffer pancreatic weight loss and dysfunction of the exocrine pancreatic tissue due to degeneration and necrosis of the pancreatic parenchyma and its replacement by connective tissue [Tsuchitani et al., Laboratory Animals, 19(3), 200-207, (1985)]. Each group of test animals contained 4 animals, and the animals were used for the experiment when they had reached 12 weeks old. The animals were fed with powdered feed F2 mixed with 0.2% of troglitazone for three months. This group is hereinafter referred to as \"the treated group\". The average dose of the compound during this period was 140 mg/kg/day. Meanwhile, another four rats (control group) were fed with the powdered feed F2 only. After the rats had been fed with the feeds for three months, the pancreas of each animal was totally enucleated and its weight was measured.\nas §2, with “All of these tissue pieces were subjected to paraffin sectioning by conventional procedures and then to hematoxylin-eosin staining and Masson's trichrome staining to prepare two tissue preparations, which were used for histopathological examination.” left out\nas §3"}}}
{"smiles": "Cc1c(C)c2c(c(C)c1O)CCC(C)(COc1ccc(CC3SC(=O)NC3=O)cc1)O2", "note": "(stereo not drawn) [troglitazone, 5-[4-(6-Hydroxy-2,5,7,8-tetramethylchroman-2-ylmethoxy)benzyl]thiazolidine-2,4-dione]", "values": [{"measurement": "Cicatrized area in the exocrine pancreatic tissue", "setting": "[1]; duodenum side, 0.05% group, control 2.48 ± 0.39", "value": "1.03 ± 0.16", "unit": "mm^2"}, {"measurement": "Total cross-sectional area of pancreatic tissue piece", "setting": "[1]; duodenum side, 0.05% group, control 106.1 ± 6.6", "value": "110.6 ± 7.7", "unit": "mm^2"}, {"measurement": "Cicatrized area in the exocrine pancreatic tissue", "setting": "[1]; duodenum side, 0.2% group, control 2.48 ± 0.39", "value": "0.65 ± 0.06", "unit": "mm^2"}, {"measurement": "Total cross-sectional area of pancreatic tissue piece", "setting": "[1]; duodenum side, 0.2% group, control 106.1 ± 6.6", "value": "122.3 ± 7.4", "unit": "mm^2"}, {"measurement": "Cicatrized area in the exocrine pancreatic tissue", "setting": "[1]; spleen side pancreatic half, 0.05% group, control 4.96 ± 0.82", "value": "1.68 ± 0.12", "unit": "mm^2"}, {"measurement": "Total cross-sectional area of pancreatic tissue piece", "setting": "[1]; spleen side pancreatic half, 0.05% group, control 103.0 ± 16.9", "value": "96.2 ± 8.2", "unit": "mm^2"}, {"measurement": "Cicatrized area in the exocrine pancreatic tissue", "setting": "[1]; spleen side pancreatic half, 0.2% group, control 4.96 ± 0.82", "value": "1.23 ± 0.19", "unit": "mm^2"}, {"measurement": "Total cross-sectional area of pancreatic tissue piece", "setting": "[1]; spleen side pancreatic half, 0.2% group, control 103.0 ± 16.9, *p < 0.05", "value": "141.9 ± 10.6", "unit": "mm^2"}, {"measurement": "Cicatrized area in the exocrine pancreatic tissue", "setting": "[2]; duodenum side half, control 10.84 ± 0.60, *p < 0.05", "value": "6.76 ± 1.37", "unit": "mm^2"}, {"measurement": "Total cross-sectional area of pancreatic tissue piece", "setting": "[2]; duodenum side half, control 89.5 ± 6.6", "value": "132.8 ± 23.6", "unit": "mm^2"}, {"measurement": "Cicatrized area in the exocrine pancreatic tissue", "setting": "[2]; spleen side pancreatic half, control 5.95 ± 0.90, *p < 0.05", "value": "3.31 ± 0.48", "unit": "mm^2"}, {"measurement": "Total cross-sectional area of pancreatic tissue piece", "setting": "[2]; spleen side pancreatic half, control 150.5 ± 4.6, *p < 0.05", "value": "172.6 ± 5.3", "unit": "mm^2"}]}
